Assay results reported in US20210236512A1 (ZARODEX THERAPEUTICS LIMITED, priority 2018, published 2021).
Values joined by “and” are separate entries in the source; they are usually repeats but may differ in a detail not shown here. Equal values may be shown once. “Also recorded” adds a separate entry of the source. Read-outs that look alike come from different tables or passages of the source.

Key:
[1] = test system: B cell subsets in bone marrow; test: Wild type mouse study: bone marrow B cell immunophenotyping by flow cytometry
[2] = First observational study: infection questionnaire, antibiotic courses and hospital admission rates; format: in vivo, human
[3] = in vivo; cited from earlier work
[4] = test system: class switched memory B cells (CSMB), plasmablasts and other B cell subsets; conditions: for CSMB after clozapine stopped: one patient, after 24 months
[5] = test system: B cell subsets and T cells in spleen; test: Wild type mouse study: spleen immunophenotyping by flow cytometry
[6] = test system: Vaccine specific-IgG (Haemophilus influenza B, Pneumococcus, Tetanus); conditions: human, in vivo
[7] = test system: collagen-induced arthritis (CIA); test: Mouse collagen-induced arthritis (CIA) model: onset, clinical score and paw-swelling; format: in vivo, DBA/1 mice
Description: Adult (age 13-15 weeks) DBA/1 male mice were purchased from Envigo (Horst, Netherlands). […] 1. […] All experiments were approved by the Clinical Medicine Animal Welfare and Ethical Review Body (AWERB) and by the UK Home Office. DBA/1 mice were immunised with bovine type II collagen in CFA and monitored daily for onset of arthritis. […] Controls received vehicle (saline) alone. Treatment of mice commenced in one experiment on day 1 after immunisation and in a second experiment on day 15 after immunisation. Clinical scores and paw-swelling were monitored for 10 days following onset of arthritis. A clinical scoring system was used as follows. Arthritis severity was scored by an experienced, non-blinded investigator as follows: 0=normal, 1=slight swelling and/or erythema, 2=pronounced swelling, 3=ankylosis. […] Data were analyzed by one-way ANOVA with Tukey's or Dunnett's multiple comparison test or two-way ANOVA with Tukey's multiple comparison test as appropriate. All calculations were made using GraphPad Prism software.

[8] = test system: B cell subsets in spleen and inguinal lymph nodes; test: Mouse CIA model: B cell subsets in spleen and lymph nodes by FACS; format: in vivo, DBA/1 mice
[9] = test system: serum/plasma IgG, IgA, IgM; conditions: cited from earlier work
[10] = test system: circulating total IgG, IgA and IgM; test: Second observational study (interim analysis): circulating immunoglobulins and pneumococcal-specific IgG; format: in vivo, human
[11] = test system: Immunoglobulins (IgG, IgA, IgM); test: Immunological assessment of referred patients taking clozapine: serum immunoglobulins; format: in vivo, human; conditions: for Serum IgG after clozapine stopped: 24 months after discontinuation; for Serum IgG at discontinuation of clozapine: starting value before recovery;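 for Serum IgA, individual referred patient: serum IgA in g/L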;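 for Serum IgG at discontinuation of clozapine: serum IgG in g/L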;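 for Serum IgG, individual referred patient: serum IgG in g/L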;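 for Serum IgM, individual referred patient: serum IgM in g/L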
[12] = clozapine treatment for six weeks (Hinze-Selch et al., 1998)
[13] = one line per patient of Table 3

With `CN1CCN(C2=Nc3cc(Cl)ccc3Nc3ccccc32)CC1` [Clozapine, clozapine] as the compound, how does the “Pro-B cell fraction in bone marrow” value ([1]; 10 mg/kg IP, 21 days) read?
Its value is “without any change”.

What about the “Proportion of pre-pro B cells in bone marrow” value ([1]; 10 mg/kg IP, 21 days) of the same compound?
The value was “significant increase”.

What about the “Reduction in the percentage of long-lived plasma cells in the bone marrow compared to control” value ([1]; 5 and 10 mg/kg IP, 21 days, significant) of the same compound?
Its value is about 30%.

What about the “B cells in the bone marrow (BM), overall” value ([1]; any dose of clozapine (2.5, 5, 10 mg/kg IP, 21 days)) of the same compound?
The value was “No overall reduction”.

What about the “Percentage of immature B cells in bone marrow” value ([1]; clozapine IP, 21 days) of the same compound?
Its value is “reduction”.

And the “Pre-B cells in bone marrow” value ([1]; dose-dependent, significant vs control even at 2.5 mg/kg)?
Its value is “reduction”.

What about the “Percentage of pre-B cells that were proliferating” value ([1]; reaching significance for the 5 mg/kg dose) of the same compound?
The value was “diminished”.

What about the “Admitted to hospital with infection” value ([2]; clozapine group (vs 0.06 in controls)) of the same compound?
Its value is 0.12 per patient year.

What about the “Admission frequency in 12-month period, all cause: patients admitted” value ([2]; clozapine-treated patients) of the same compound?
The value was 14 patients.

And the “Admission frequency in 12-month period, infection-related: admissions” value ([2]; clozapine-treated patients)?
The value was 15.

And the “Admission frequency in 12-month period, infection-related: patients admitted” value ([2]; clozapine-treated patients)?
The value was 10 patients.

What about the “Antibiotic courses per year: 1-5 courses, percentage of patients” value ([2]; clozapine-treated patients) of the same compound?
The value was 33.0%.

What about the “Antibiotic courses per year: >5 courses, percentage of patients” value ([2]; clozapine-treated patients) of the same compound?
Its value is 5.3%.

And the “Antibiotic courses per year: nil courses, percentage of patients” value ([2]; clozapine-treated patients)?
The value was 61.7%.

And the “Antibiotic courses per year: >5 courses, percentage of patients” value ([2]; clozapine-treated patients, listed as clozapine)?
Its value is 5.3%.

And the LD50 [3]?
Its LD50 is 200 mg/kg.

What about the “Marginal zone B cell numbers vs healthy control” value ([4]; FIG. 3B) of the same compound?
The value was “no significant difference”.

What about the “Total B cell numbers vs CVID and healthy controls” value ([4]; FIG. 3B) of the same compound?
Its value is “similar”.

And the “CSMB (reference range 6.5-29.1%), individual referred patient” value ([4]; class switched memory B cells as % of total CD19+ cells, one line per patient of Table 3, listed as clozapine)?
The value was 1.58%.

And the “Overall lymphopenia or B cell lymphopenia” value ([4]; human, in vivo)?
Its value is “no severe overall lymphopenia or B cell lymphopenia”.

And the “CSMB after clozapine stopped” value [4]?
Its value is “CSM Brose to 2.77%”.

And the “CSMB after clozapine stopped” value ([4]; listed as clozapine)?
Its value is 2.77%.

And the “Mean CSMB (reference range 6.5-29.1%)” value ([4]; referred clozapine-treated patients, p<0.0001 vs healthy controls)?
The value was 1.87%.

What about the “Other splenic cell populations (B220-TCR-b-)” value ([5]; 5 mg/kg and 10 mg/kg) of the same compound?
Its value is “No effect”.

What about the “Percentage of splenic T cells” value ([5]; 5 mg/kg and 10 mg/kg) of the same compound?
The value was “reciprocal increase”.

What about the “Percentage of splenic B cells (B220+TCR-b-) as a proportion of total live splenocytes” value ([5]; 5 mg/kg and 10 mg/kg IP, 21 days) of the same compound?
Its value is “significantly lower”.

And the “Proportion of T2 B cells in the spleen” value ([5]; across all doses of clozapine)?
Its value is “small increase”.

What about the “Activated T cells (B220+TCR-b+) in spleen vs control” value ([5]; clozapine 2.5-10 mg/kg) of the same compound?
The value was “reduced in dose-dependent fashion”.

And the “Splenic follicular or marginal zone B cell subsets” value ([5]; clozapine IP, 21 days)?
The value was “no specific reductions”.

And the “Proportion of transitional stage 1 (T1) B cells in the spleen” value ([5]; including at the 2.5 mg/kg dose)?
Its value is “mildly reduced”.

What about the “Germinal centre cells in the spleen vs control or haloperidol” value ([5]; steady state) of the same compound?
Its value is “no differences”.

And the “Failed to develop an IgG response above >=50 mg/L following Pneumovax II” value [6]?
Its value is 73%.

And the “Failing to exceed the >=0.1 IU/mL post-vaccination Tetanus-IgG level” value [6]?
Its value is 1/12.

And the “Failing to mount a Haemophilus-IgG response >=1 mcg/ml post-Menitorix (HiB/MenC) vaccination” value [6]?
Its value is 42%.

What about the “IgG to Haemophilus influenza B (HiB) <1 mcg/ml at initial assessment, patients” value [6] of the same compound?
The value was 75%.

And the “Pneumococcus-IgG <50 mg/L at initial assessment, patients” value [6]?
The value was 94%.

What about the “Response to haemophilus and/or pneumococcal vaccination, individual referred patient” value [6] of the same compound?
Its value is “Failure to responds to; also recorded: Durable pneumococcal; also recorded: Non-durable”.

And the “Responses to vaccination impaired, patients / patients assessed” value [6]?
Its value is 10/11.

And the “Tetanus-IgG <0.1 IU/mL at initial assessment, patients” value [6]?
The value was 38%.

And the “Swelling of the first affected paw” value ([7]; 10 mg/kg from day 1)?
The value was “reduced”.

And the “Onset of arthritis post-immunisation” value ([7]; 5 or 10 mg/kg IP daily from day 1 or day 15)?
Its value is “significantly effective in delaying the onset of arthritis”.

And the “Arthritis onset, treatment from day 1” value ([7]; both doses (5, 10 mg/kg) from day 1)?
Its value is “extremely effective in delaying arthritis onset”.

What about the Overall clinical score ([7]; both doses, administered on day 1) of the same compound?
Its Overall clinical score is “reduced”.

What about the “Incidence of CIA” value ([7]; most apparent when dosed just after CII immunisation, FIG. 26) of the same compound?
The value was “reduces the incidence”.

And the “Total number of affected paws compared to vehicle control” value ([7]; significant with dosing at D1)?
Its value is “reduced”.

And the “Proportion of B220+ B cells in spleen” value ([8]; 10 mg/kg from day 1)?
The value was “significantly reduced”.

And the “Proportion of plasma cells in spleen” value ([8]; 10 mg/kg given on day 1)?
Its value is “significant reduction”.

What about the “Level of GL7 expression on follicular B cells in lymph node” value ([8]; all clozapine treatment groups vs vehicle, dose- and time-dependent) of the same compound?
The value was “significantly decreased”.

What about the “Percentage of B220+ B cells in lymph nodes” value ([8]; all doses and time points (5 or 10 mg/kg from day 1 or day 15)) of the same compound?
The value was “significantly lower”.

And the “Lymph node follicular B cells (B220+IgD-Fas+GL7hi)” value ([8]; all doses/both time points)?
The value was “Strikingly significant reductions”.

And the “Plasma cell numbers in lymph node” value ([8]; all doses/times)?
The value was “no significant effect”.

And the “Plasma cells as a proportion of live cells in spleen compared to control” value ([8]; every other dose/time evaluated)?
Its value is “nominally lower values”.

What about the “IgA, IgG, absolute neutrophil count and white blood cell count vs control group” value ([9]; Lozano et al., 2016) of the same compound?
The value was “no differences”.

What about the “IgA or IgM concentrations or pattern of autoantibodies” value [9, 12] of the same compound?
Its value is “no significant effect”.

And the “Serum concentrations of IgG” value [9, 12]?
Its value is “significant increases”.

What about the “Mean plasma levels of IgM vs control group” value ([9]; outpatients on clozapine for at least five years (Lozano et al., 2016)) of the same compound?
Its value is “overall decrease”.

What about the “Levels of circulating total IgG, IgA and IgM vs clozapine naive” value ([10]; FIG. 6A-C) of the same compound?
The value was “Significantly reduced”.

And the “IgG antibodies against pneumococcus vs clozapine naive” value ([10]; FIG. 7)?
The value was “trend to lower”.

And the “Serum IgA and IgM following cessation of clozapine” value ([11]; FIG. 5 / one patient over 24 months)?
Its value is “without clear improvement; also recorded: remained low”.

What about the “Serum IgA, individual referred patient” value [11, 13] of the same compound?
Its value is “IgA 0.54 g/L; also recorded: IgA < 0.22 g/L; also recorded: IgA 0.49 g/L; also recorded: IgA 0.38 g/L; also recorded: undetectable; also recorded: IgA 0.26 g/L; also recorded: IgA 0.81 g/L; also recorded: IgA 0.63 g/L”.

And the “Serum IgM, individual referred patient” value [11, 13]?
The value was “IgM 0.3 g/L; also recorded: IgM < 0.17 g/L; also recorded: IgM 0.41 g/L; also recorded: IgM 0.23 g/L; also recorded: IgM 0.07 g/L; also recorded: IgM 0.18 g/L”.

What about the “Serum IgG, individual referred patient” value ([11]; one line per patient of Table 3 (clozapine dose and duration differ)) of the same compound?
The value was “IgG 4.8 g/L; also recorded: IgG < 1.34 g/L; also recorded: IgG 5.24 g/L; also recorded: IgG 2.68 g/L; also recorded: IgG 2.98 g/L; also recorded: IgG 1.2 g/L; also recorded: IgG 3.3 g/L; also recorded: IgG 2.38 g/L; also recorded: IgG 4.24 g/L; also recorded: IgG 6.65 g/L; also recorded: IgG 5.61 g/L; also recorded: IgG 4.79 g/L”.

What about the “Serum IgG after clozapine stopped” value ([11]; one patient) of the same compound?
Its value is “IgG rose to 5.95 from g/L”.

And the “Serum IgG after clozapine stopped” value ([11]; one patient, listed as clozapine)?
The value was 5.95 g/L.

And the “Serum IgA after clozapine stopped” value ([11]; one patient, after 24 months)?
The value was 0.29.

And the “Serum IgM after clozapine stopped” value ([11]; one patient, after 24 months)?
The value was 0.49 after 24 months.

And the “Serum IgG after clozapine stopped, intermediate value” ([11]; one patient, within the 24 months after discontinuation)?
Its value is 4.8 g/L.

And the “Serum IgG post-discontinuation of clozapine” value ([11]; over three years (FIG. 5))?
Its value is 5.95 g/L.

And the “Mean serum IgA” value ([11]; referred patients on clozapine)?
The value was 0.34 g/L.

And the “Mean serum IgG” value ([11]; referred patients on clozapine)?
Its value is 3.6 g/L.

What about the “Mean serum IgM” value ([11]; referred patients on clozapine) of the same compound?
The value was 0.21 g/L.

And the “Serum IgG at discontinuation of clozapine” value [11]?
The value was 3.3 g/L.

What about the “Serum IgG at discontinuation of clozapine” value ([11]; listed as clozapine) of the same compound?
The value was 3.5 g/L and 3.3 g/L.
